# In patent publication US6727288B2, “Method for treating bone fracture” (Juneng Industry Co., Ltd., priority 2001, dated 2004):
# Marks after values point to notes of the source that are not given here.
# Tests used:
# osteoblasts (OB2) [1] = test: Osteoblast (OB2) proliferation, MTT method; format: cell-based, SD rat; settings: for A570 (X ± SD): 72 hours, MTT, n = 4
# Protocol: (§1) 1) Sampling: after a newborn (within 24 hours) SD rat was disinfected, the calvaria were excised under sterilization conditions. The calvaria were predigested by 0.25% trypsin for 10-15 minutes firstly, then oscillated and digested by 0.1% collagenase II at 37° C. for 60 minutes. The cells were collected by centrifugation at 1000 rpm.
# (§2) 2) Cell culture: The isolated cells were inoculated into culture flask at a concentration of 1×10^4/cm^2, wherein the culture solution is 10% of NCS-MEM. The cells were cultured in an incubator with 5% CO2 at 37° C., then passaged until half confluence. The second generation of secondary cells (OB2) were tested for pharmacodynamics.
# (§3) 3) Medicines: Each test medicine was formulated at a concentration of 0.1 mol/L, and sterilized by high pressure for later use.
# (§4) 2.24 g of calcium gluconate was dissolved in 50 ml of deionized water at room temperature. The control group was deionized water.
# OB2 were inoculated into 24 well COSTOR culture plate at a density of 6×10^3 per well. 24 hours later, the above culture solution was replaced by culture solution containing varying concentrations of medicines ranging from 10^−9 to 10^−3 mol/L. 72 hours after adding medicines, the cells were tested through Labsystems Multiskan MS (Finland) )ELISA analyzer by MTT method. OD value at 570 nm was used to reflect cell proliferation.
# osteoblasts (OB2) [2] = test: Mineralization function of OB2, alizarin red nodule count; format: cell-based, SD rat; settings: for Number of mineralization nodules: 14 days, alizarin red, n = 4
# Protocol: as §1, §2, §3, §4
# OB2 was inoculated into 6 well COSTOR culture plate at a density of 5×10^4 per well. 24 hours later, the above culture solution was replaced by culture solution containing medicines. Then the solution was changed every 48 hours. 14 days later, the cells were fixed and stained with alizarin red.
# [3] = test system: ALP activity of osteoblast (OB2); test: ALP activity of OB2 cell lysates, para-nitrobenzene phosphate method; format: cell-based, SD rat; settings: 10^−3 mol/L; for ALP activity of osteoblast: n = 4
# Protocol: as §1, §2, §3, §4
# OB2 was inoculated into 24 well COSTOR culture plate at a density of 2×10^4 per well. 24 hours later, the above culture solution was replaced by medium containing medicines. Then the culture solution was changed every 48 hours until confluence of cells was reached. ALP activity of cell lysates was measured by para-nitrobenzene phosphate method. Content of protein in cell lysates was measured by Coomassie brilliant blue method.
# [4] = test system: α-COLI mRNA in osteoblast (OB2); test: mRNA expression of α-COLI in osteoblasts by quantitative RT-PCR; format: cell-based, SD rat; settings: 10^−3 mol/L; for level of α-COLI mRNA compared with control group: quantitative RT-PCR, in words
# Protocol: 1. Cell Culture: The culture method of primary osteoblast was the same as that of the previous test. OB2 was inoculated at density of 1×10^4 cells/cm^2. […] Culture medium was changed every 48 hours and the medicines were added. Total RNA of the cells was extracted one week later.
# 2. Extraction of RNA: The cells were digested with 0.25% trypsin, and were centrifuged at 1000 rpm for 5 min to collect cell pellets. Total RNA was extracted with TRIzol reagent (Gibco Co.) method.
# 3. Reverse transcriptase polymerase chain reaction (RT-PCR): Access RT-PCR System kit (Promega) was used in the test, following the directions of the kit. The RT-PCR of the reaction mixture was performed in PCR analyzer (Bio-Rad Inc.) at 48° C. for 45 min. Inactivate enzyme at 94° C. for 2 min, then 30 cycles of PCR reaction: […] at 94° C. for degeneration, 1 min at 54° C. for annealing, 2 min at 72° C. for extension, and after the last cycle, 7 min at 72° C. for another extension. 9 μl PCR products were analyzed in 1.5% agarose gel electrophoresis. Then the bands were analyzed by image analysis system (Image Master VDS). Optical density value was calibrated by internal reference-Actin, and the calibration values were analyzed statistically.
# 4. Medicines: Each test medicine was formulated at the concentration of 0.1 mol/L, and sterilized by high pressure for later use. […] Calcium gluconate, Shanghai Huanghai Pharmaceutical Factory, 2.24 g was dissolved in 50 ml deionized water.
# emasculated rat = settings: in words
Compound,"A570 (X ± SD) (osteoblasts (OB2) [1]; test I, 10^−3 mol/L)","A570 (X ± SD) (osteoblasts (OB2) [1]; test I, 10^−5 mol/L)","A570 (X ± SD) (osteoblasts (OB2) [1]; test I, 10^−7 mol/L)","A570 (X ± SD) (osteoblasts (OB2) [1]; test I, 10^−9 mol/L)","A570 (X ± SD) (osteoblasts (OB2) [1]; test II, 10^−3 mol/L)","A570 (X ± SD) (osteoblasts (OB2) [1]; test II, 10^−5 mol/L)","A570 (X ± SD) (osteoblasts (OB2) [1]; test II, 10^−7 mol/L)","A570 (X ± SD) (osteoblasts (OB2) [1]; test II, 10^−9 mol/L)","A570 (X ± SD) (osteoblasts (OB2) [1]; test III, 10^−3 mol/L)","A570 (X ± SD) (osteoblasts (OB2) [1]; test III, 10^−5 mol/L)","A570 (X ± SD) (osteoblasts (OB2) [1]; test III, 10^−7 mol/L)","A570 (X ± SD) (osteoblasts (OB2) [1]; test III, 10^−9 mol/L)",Number of mineralization nodules (osteoblasts (OB2) [2]),ALP activity of osteoblast ([3]; Experiment 1),ALP activity of osteoblast ([3]; Experiment 2),ALP activity of osteoblast ([3]; Experiment 3),level of α-COLI mRNA compared with control group [4],also measured
[Ca+2].[Cl-].[Cl-] [Calcium chloride],0.325 ± 0.052,0.277 ± 0.037,0.239 ± 0.005^&,0.237 ± 0.005^&,0.423 ± 0.028***^&,0.324 ± 0.047^&,0.268 ± 0.022^&,0.292 ± 0.023,0.281 ± 0.014,0.268 ± 0.025^&,0.229 ± 0.09,0.267 ± 0.016,6.4 ± 1.673^&,0.119 ± 0.039 U/mg of protein,0.122 ± 0.08 U/mg of protein,0.102 ± 0.008 U/mg of protein,–,–
Calcium gluconate,0.381 ± 0.052,0.351 ± 0.039,0.267 ± 0.009*^&,0.265 ± 0.025,0.359 ± 0.072**^&,0.301 ± 0.051,0.268 ± 0.019*^&,0.248 ± 0.017^&,0.229 ± 0.021,0.242 ± 0.012,0.233 ± 0.021^$,0.229 ± 0.017,6.2 ± 2.588^&,0.115 ± 0.009 U/mg of protein,0.140 ± 0.016 U/mg of protein,0.107 ± 0.025 U/mg of protein,no significant difference,"Relative expression amount of α-COLI ([4]; one week, calibrated by β-Actin, X ± SD, n = 3): 1.2524 ± 0.377"
calcium L-threonate,0.458 ± 0.019,0.405 ± 0.085,0.401 ± 0.082,0.387 ± 0.087,0.486 ± 0.010,0.449 ± 0.041,0.371 ± 0.047,0.418 ± 0.047,0.386 ± 0.024,0.327 ± 0.034,0.338 ± 0.048,0.316 ± 0.073,12.0 ± 3.742,0.156 ± 0.002 U/mg of protein,0.208 ± 0.003 U/mg of protein,0.164 ± 0.026 U/mg of protein,increased significantly,"biomechanical parameters (emasculated rat): significantly increase; bone density (emasculated rat): significantly increase; content of bone calcium (emasculated rat): significantly increase; effect on proliferation of osteoblast (osteoblasts (OB2) [1]; 10^−9-10^−3 mol/L, in words): promoting proliferation of osteoblast; number of mineralization nodules versus other groups (osteoblasts (OB2) [2]; within two weeks, in words): the largest; ALP activity of OB2 versus control group ([3]; in words): higher than that of control group"
